The text below walks through data of US10899732B2, “Substituted benzamides useful as sodium channel blockers” (GENENTECH, INC., priority 2015, dated 2021).

Structures are written as SMILES. Counter-ions that a name gives are not always drawn.

The target of one data set is T1, hNav1.7 (Homo sapiens, UniProt Q15858).
T1 construct: expressed in transfected cells
Nature of the data set: Tritiated sulfonamide competitive binding to membranes from cells expressing hNav1.7 and the β1 subunit (LBA). The settings on record: competition with 100 pM [3H]compound, 18 h, room temperature; read-out: Nav1.7 (LBA). Here is the method: Tritiated Sulfonamide Binding to Membranes Isolated from Cells that Heterologously Express hNav1.7 and the β1 Subunit
Preparation of membranes containing recombinantly expressed sodium channels: Frozen recombinant cell pellets were thawed on ice and diluted to 4 times the cell pellet weight with ice cold 50 mM Tris HCl, pH 7.4 buffer. The cell suspensions were homogenized on ice using a motorized glass dounce homogenizer. Homogenates were further diluted 8.4 times with ice cold 50 mM Tris HCl, pH 7.4 buffer and then centrifuged at 200×g at 4° C. for 15 min. The supernatants were collected and centrifuged at 10000×g at 4° C. for 50 min. The pellets were then re-suspended in 100 mM NaCl, 20 mM Tris HCl, pH 7.4 buffer containing 1% v/v protease inhibitors (Calbiochem) and re-homogenized on ice. The homogenized membranes were then processed through a syringe equipped with a 26 gauge needle. Protein concentrations were determined by Bradford Assay and the membranes were stored at −80° C.
Saturation experiments. A competitive NaV1.7 inhibitor having a methyl group was tritiated. Three tritiums were incorporated in place of methyl hydrogens to generate [^3H]compound. Binding of this radioligand was preformed in 5 mL borosilicate glass test tubes at room temperature. Binding was initiated by adding membranes to increasing concentrations of [^3H]compound in 100 mM NaCl, 20 mM Tris HCl, pH 7.4 buffer containing 0.01% w/v bovine serum albumin (BSA) for 18 h. Non-specific binding was determined in the presence of 1 μM unlabelled compound. After 18 h, the reactants were filtered through GF/C glass fiber filters presoaked in 0.5% w/v polyethylene imine. Filters were washed with 15 mL ice cold 100 mM NaCl, 20 mM Tris HCl, pH 7.4 buffer containing 0.25% BSA to separate bound from free ligand. [^3H]compound bound to filters was quantified by liquid scintillation counting.
Binding reactions were performed in 96-well polypropylene plates at room temperature for 18 h. In 360 μL, membranes were incubated with 100 pM [^3H]compound and increasing concentrations of Test Compound. Non-specific binding was defined in the presence of 1 μM unlabelled compound. Reactions were transferred and filtered through 96-well glass fiber/C filter plates presoaked with 0.5% polyethylene imine. The filtered reactions were washed 5 times with 200 μL ice cold buffer containing 0.25% BSA. Bound radioactivity was determined by liquid scintillation counting.
Data Analysis: For saturation experiments, non-specific binding was subtracted from total binding to provide specific binding and these values were recalculated in terms of pmol ligand bound per mg protein. Saturation curves were constructed and dissociation constants were calculated using the single site ligand binding model: Beq=(Bmax*X)/(X+Kd), where Beq is the amount of ligand bound at equilibrium, Bmax is the maximum receptor density, Kd is the dissociation constant for the ligand, and X is the free ligand concentration. For competition studies percent inhibition was determined and IC50 values were calculated using a 4 parameter logistic model (% inhibition=(A+((B−A)/(1+((x/C)^D)))) using XLfit, where A and B are the maximal and minimum inhibition respectively, C is the IC50 concentration and D is the (Hill) slope.

The next data set addresses T2, NaV1.7 (Homo sapiens, UniProt Q15858).
T2 construct: expression vector containing the full-length cDNA coding for the desired human sodium channel α-subunit; expressed in transfected cells; host or cells: HEK-293
The experiment in a line: Patch voltage clamp electrophysiology assay (EP), NaV1.7 in HEK-293 cells. In kind it is cell-based. The settings on record: HEK-293, β1 coexpressed, held at -60 mV (inactivated state). The source says:
(§1) Electrophysiological Assay (EP) (In Vitro Assay)
(§2) Patch voltage clamp electrophysiology allows for the direct measurement and quantification of block of voltage-gated sodium channels (NaV's), and allows the determination of the time- and voltage-dependence of block which has been interpreted as differential binding to the resting, open, and inactivated states of the sodium channel (Hille, B., Journal of General Physiology (1977), 69: 497-515).
(§3) The following patch voltage clamp electrophysiology studies were performed on representative compounds of the invention using human embryonic kidney cells (HEK), permanently transfected with an expression vector containing the full-length cDNA coding for the desired human sodium channel α-subunit, grown in culture media containing 10% FBS, 1% PSG, and 0.5 mg/mL G418 at 37° C. with 5% CO2. […] NaV1.7 and NaV1.5 cDNAs (NM_002977 and AC137587; SCN5A, respectively) were stably expressed in HEK-293 cells. The β1 subunit was coexpressed in both the NaV1.7 and NaV1.5 cell lines.
(§4) Sodium currents were measured using the patch clamp technique in the whole-cell configuration using either a PatchXpress automated voltage clamp or manually using an Axopatch 200B (Axon Instruments) or Model 2400 (A-M systems) amplifier. The manual voltage clamp protocol was as follows: Borosilicate glass micropipettes were fire-polished to a tip diameter yielding a resistance of 2-4 Mohms in the working solutions. The pipette was filled with a solution comprised of: 5 mM NaCl, 10 mM CsCl, 120 mM CsF, 0.1 mM CaCl2, 2 mM MgCl2, 10 mM HEPES, 10 mM EGTA; and adjusted to pH 7.2 with CsOH. The external solution had the following composition: 140 mM NaCl, 5 mM KCl, 2 mM CaCl2, 1 mM MgCl2, 10 mM HEPES; and adjusted to pH 7.4 with NaOH. In some studies, the external sodium was reduced by equimolar replacement with choline. Osmolarity in the CsF internal and NaCl external solutions was adjusted to 300 mOsm/kg and 310 mOsm/kg with glucose, respectively. All recordings were performed at ambient temperature in a bath chamber with a volume of 150 μL. Control sodium currents were measured in 0.5% DMSO. Controls and representative compounds of the invention were applied to the recording chamber through a 4-pinch or 8-pinch valve bath perfusion system manufactured by ALA Scientific Instruments.
(§5) Currents were recorded at 40 kHz sampling frequency, filtered at […], and stored using a Digidata-1322A analogue/digital interface with the pClamp software (Axon Instruments). Series resistance compensation was applied (60-80%). […] All statistics in this study are given as mean±SD.
(§6) The membrane potential was maintained at a voltage where inactivation of the channel is complete (which was −60 mV for both NaV1.7 and NaV1.5). The voltage is then stepped back to a very negative (Vhold=[…]) voltage for 20 ms and then a test pulse is applied to quantify the compound block. The 20 ms brief repolarization was long enough for compound-free channels to completely recover from fast inactivation, but the compound-bound channels recovered more slowly such that negligible recovery could occur during this interval. The percent decrease in sodium current following wash-on of compound was taken as the percent block of sodium channels.

A further data set addresses T3, NaV1.5 (Homo sapiens, UniProt Q14524).
T3 construct: expression vector containing the full-length cDNA coding for the desired human sodium channel α-subunit; expressed in transfected cells; host or cells: HEK-293
Nature of the data set: Patch voltage clamp electrophysiology assay (EP), NaV1.5 in HEK-293 cells. The settings on record: HEK-293, β1 coexpressed, held at -60 mV (inactivated state). In kind it is cell-based.
From the text: as §1, §2, §3, §4, §5, §6

T2 sequence (Q15858 1-1977 isoform Q15858-3): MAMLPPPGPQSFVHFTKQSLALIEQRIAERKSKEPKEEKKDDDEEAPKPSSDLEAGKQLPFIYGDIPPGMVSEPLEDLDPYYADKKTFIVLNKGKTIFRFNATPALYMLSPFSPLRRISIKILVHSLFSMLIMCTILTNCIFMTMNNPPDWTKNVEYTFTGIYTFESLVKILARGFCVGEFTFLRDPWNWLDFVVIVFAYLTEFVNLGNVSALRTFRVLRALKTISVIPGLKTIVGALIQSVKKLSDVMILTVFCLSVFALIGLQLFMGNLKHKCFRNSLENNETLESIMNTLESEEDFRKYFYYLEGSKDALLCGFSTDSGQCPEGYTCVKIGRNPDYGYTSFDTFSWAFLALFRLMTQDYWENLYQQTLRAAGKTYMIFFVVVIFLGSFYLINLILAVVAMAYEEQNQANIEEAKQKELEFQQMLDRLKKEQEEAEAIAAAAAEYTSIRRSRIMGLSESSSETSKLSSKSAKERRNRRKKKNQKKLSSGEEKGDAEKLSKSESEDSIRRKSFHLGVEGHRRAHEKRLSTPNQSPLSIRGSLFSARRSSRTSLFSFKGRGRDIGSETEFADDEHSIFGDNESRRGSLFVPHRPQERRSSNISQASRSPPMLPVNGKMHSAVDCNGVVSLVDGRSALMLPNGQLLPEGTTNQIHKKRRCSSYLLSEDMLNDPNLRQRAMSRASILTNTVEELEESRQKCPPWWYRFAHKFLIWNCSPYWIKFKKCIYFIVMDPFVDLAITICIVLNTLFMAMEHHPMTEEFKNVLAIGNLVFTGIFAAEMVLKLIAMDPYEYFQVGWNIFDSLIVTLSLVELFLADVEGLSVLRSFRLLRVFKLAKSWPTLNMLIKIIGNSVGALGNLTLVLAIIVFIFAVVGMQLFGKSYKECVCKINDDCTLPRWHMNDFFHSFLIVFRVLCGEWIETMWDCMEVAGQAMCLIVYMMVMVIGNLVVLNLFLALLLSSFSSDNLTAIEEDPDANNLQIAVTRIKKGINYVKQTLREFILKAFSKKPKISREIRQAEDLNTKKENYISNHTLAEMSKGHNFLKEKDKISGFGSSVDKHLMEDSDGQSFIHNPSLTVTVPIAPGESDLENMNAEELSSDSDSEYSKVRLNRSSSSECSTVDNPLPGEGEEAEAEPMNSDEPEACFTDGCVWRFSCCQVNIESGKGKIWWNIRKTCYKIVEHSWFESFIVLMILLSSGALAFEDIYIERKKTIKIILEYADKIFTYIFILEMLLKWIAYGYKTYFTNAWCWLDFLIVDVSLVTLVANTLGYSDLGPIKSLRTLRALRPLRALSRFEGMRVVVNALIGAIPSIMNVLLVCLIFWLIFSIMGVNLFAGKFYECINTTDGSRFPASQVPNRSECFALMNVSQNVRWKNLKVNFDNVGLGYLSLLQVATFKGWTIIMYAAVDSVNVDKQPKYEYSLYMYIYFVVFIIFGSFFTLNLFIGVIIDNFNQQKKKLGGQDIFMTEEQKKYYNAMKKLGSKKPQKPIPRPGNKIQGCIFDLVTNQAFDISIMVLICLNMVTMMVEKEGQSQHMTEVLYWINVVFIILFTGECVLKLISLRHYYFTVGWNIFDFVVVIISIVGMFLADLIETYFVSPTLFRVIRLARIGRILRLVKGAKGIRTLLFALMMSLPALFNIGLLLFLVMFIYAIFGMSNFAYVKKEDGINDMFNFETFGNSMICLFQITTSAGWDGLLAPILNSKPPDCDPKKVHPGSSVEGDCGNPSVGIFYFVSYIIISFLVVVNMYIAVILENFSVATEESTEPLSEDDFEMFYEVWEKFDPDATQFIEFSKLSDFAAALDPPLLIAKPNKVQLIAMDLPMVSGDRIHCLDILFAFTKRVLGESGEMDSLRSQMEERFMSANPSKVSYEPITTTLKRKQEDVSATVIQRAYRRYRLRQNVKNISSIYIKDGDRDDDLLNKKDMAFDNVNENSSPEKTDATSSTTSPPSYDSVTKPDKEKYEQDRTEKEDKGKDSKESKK
T2 sequence (Q07699 19-218 partner): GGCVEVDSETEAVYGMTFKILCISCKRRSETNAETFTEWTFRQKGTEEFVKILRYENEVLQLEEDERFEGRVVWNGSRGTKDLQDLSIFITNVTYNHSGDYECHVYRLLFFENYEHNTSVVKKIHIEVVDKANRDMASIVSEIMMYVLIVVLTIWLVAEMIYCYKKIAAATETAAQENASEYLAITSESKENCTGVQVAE
T1 sequence (Q15858 1-1977 isoform Q15858-3): as the sequence (Q15858 1-1977 isoform Q15858-3) above
T1 sequence (Q07699 19-218 partner): as the sequence (Q07699 19-218 partner) above
T3 sequence (Q14524 whole entry): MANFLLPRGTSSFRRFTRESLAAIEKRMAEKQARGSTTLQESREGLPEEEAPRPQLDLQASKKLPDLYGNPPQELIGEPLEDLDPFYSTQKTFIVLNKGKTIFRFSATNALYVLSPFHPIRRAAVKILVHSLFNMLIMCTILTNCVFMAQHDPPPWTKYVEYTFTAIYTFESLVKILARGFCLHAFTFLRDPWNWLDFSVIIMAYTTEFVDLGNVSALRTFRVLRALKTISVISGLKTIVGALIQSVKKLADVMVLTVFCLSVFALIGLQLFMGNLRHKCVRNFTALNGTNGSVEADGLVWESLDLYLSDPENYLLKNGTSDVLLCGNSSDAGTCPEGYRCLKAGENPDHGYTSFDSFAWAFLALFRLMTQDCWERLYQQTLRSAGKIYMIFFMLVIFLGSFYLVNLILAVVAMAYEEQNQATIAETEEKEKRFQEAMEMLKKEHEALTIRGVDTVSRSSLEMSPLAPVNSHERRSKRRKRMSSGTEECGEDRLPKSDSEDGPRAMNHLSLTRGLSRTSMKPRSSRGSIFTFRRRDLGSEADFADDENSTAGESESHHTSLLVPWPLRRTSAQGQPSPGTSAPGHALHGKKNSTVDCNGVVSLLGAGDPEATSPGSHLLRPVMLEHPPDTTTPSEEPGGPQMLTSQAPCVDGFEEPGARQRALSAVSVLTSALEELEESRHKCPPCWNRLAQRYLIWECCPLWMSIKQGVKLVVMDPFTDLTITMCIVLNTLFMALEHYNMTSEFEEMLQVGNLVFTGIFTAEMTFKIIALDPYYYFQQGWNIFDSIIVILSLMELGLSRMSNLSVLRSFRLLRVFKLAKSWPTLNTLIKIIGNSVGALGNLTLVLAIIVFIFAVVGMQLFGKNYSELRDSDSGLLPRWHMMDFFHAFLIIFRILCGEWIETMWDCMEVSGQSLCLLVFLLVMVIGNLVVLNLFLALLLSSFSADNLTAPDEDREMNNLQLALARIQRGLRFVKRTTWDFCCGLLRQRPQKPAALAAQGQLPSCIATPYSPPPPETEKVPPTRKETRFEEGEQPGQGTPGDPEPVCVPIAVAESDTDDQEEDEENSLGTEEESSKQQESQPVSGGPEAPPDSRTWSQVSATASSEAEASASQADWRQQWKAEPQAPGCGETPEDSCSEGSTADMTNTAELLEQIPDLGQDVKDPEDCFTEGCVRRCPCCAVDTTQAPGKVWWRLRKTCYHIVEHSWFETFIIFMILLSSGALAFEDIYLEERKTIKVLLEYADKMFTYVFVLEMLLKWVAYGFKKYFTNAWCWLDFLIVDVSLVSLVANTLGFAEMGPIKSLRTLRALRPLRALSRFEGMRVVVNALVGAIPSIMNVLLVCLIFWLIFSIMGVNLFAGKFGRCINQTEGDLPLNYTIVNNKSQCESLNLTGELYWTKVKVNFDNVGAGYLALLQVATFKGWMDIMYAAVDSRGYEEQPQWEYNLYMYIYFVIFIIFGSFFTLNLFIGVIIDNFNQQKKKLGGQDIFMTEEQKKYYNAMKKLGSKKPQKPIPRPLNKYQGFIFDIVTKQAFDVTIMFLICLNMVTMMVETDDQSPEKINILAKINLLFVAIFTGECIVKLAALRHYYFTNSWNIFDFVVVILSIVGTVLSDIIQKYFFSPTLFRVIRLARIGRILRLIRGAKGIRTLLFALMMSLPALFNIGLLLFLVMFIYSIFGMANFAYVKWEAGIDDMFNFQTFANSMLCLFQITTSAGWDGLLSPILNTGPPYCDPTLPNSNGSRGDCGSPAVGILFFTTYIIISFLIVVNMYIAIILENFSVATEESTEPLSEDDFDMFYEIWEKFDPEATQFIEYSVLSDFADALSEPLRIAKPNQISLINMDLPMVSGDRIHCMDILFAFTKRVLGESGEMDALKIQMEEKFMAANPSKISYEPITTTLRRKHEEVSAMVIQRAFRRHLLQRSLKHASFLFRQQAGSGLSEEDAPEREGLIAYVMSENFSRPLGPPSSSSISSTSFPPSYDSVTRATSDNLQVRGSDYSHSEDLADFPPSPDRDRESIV

Regarding `Cc1nn(C2CCC(C(C)(C)C)CC2)c2cc(F)c(C(=O)NS(=O)(=O)N3CCC3)cc12` (stereo not shown) [Example 27, N-(azetidin-1-ylsulfonyl)-1-(4-(tert-butyl)cyclohexyl)-6-fluoro-3-methyl-1H-indazole-5-carboxamide], the IC50 at hNav1.7 worked out at 23 nM; on NaV1.7 it was 140 nM.

As for `Cc1nn(CC23CC4CC(CC(C4)C2)C3)c2cc(F)c(C(=O)N[S@TB2](C)(=O)=O)cc12` [Example 40, 1-(((1s,3s)-adamantan-1-yl)methyl)-6-fluoro-3-methyl-N-(methylsulfonyl)-1H-indazole-5-carboxamide], the IC50 was 410 nM on hNav1.7; 1200 nM at NaV1.7; at least 30000 nM against NaV1.5 (human, pH 7.4).

On to `Cc1nn([C@@H]2CCN([C@H](C)c3cc(Cl)cc(OC(F)(F)F)c3)C2)c2cc(F)c(C(=O)NS(=O)(=O)C3CC3)cc12` [Example 22, 1-((R)-1-((R)-1-(3-chloro-5-(trifluoromethoxy)phenyl)ethyl)pyrrolidin-3-yl)-N-(cyclopropylsulfonyl)-6-fluoro-3-methyl-1H-indazole-5-carboxamide, trifluoroacetic acid salt], for which the IC50 at hNav1.7 turned out to be 20 nM; at NaV1.7, 110 nM; against NaV1.5 it was 4800 nM.

In the case of `Cc1nn(-c2cnc(OCC(C)C)c(Cl)c2)c2cc(F)c(C(=O)NS(=O)(=O)N3CCC3)cc12` [Example 42, N-(azetidin-1-ylsulfonyl)-1-(5-chloro-6-isobutoxypyridin-3-yl)-6-fluoro-3-methyl-1H-indazole-5-carboxamide], the IC50 on hNav1.7 is 7 nM; against NaV1.7, 71 nM; at NaV1.5 (human, pH 7.4) it was at least 30000 nM.

Turning to `Cc1nn([C@@H]2CCN(C(=O)c3cc(Cl)cc(Cl)c3)C2)c2cc(F)c(C(=O)NS(=O)(=O)C3CC3)cc12` [Example 21, (R)-N-(cyclopropylsulfonyl)-1-(1-(3,5-dichlorobenzoyl)pyrrolidin-3-yl)-6-fluoro-3-methyl-1H-indazole-5-carboxamide], the IC50 at hNav1.7 was 1500 nM; against NaV1.7, 4000 nM; on NaV1.5 (human, pH 7.4), at least 30000 nM.

On to `Cc1nn(C2CCN(Cc3cc(Cl)cc(OC(F)(F)F)c3)CC2)c2cc(F)c(C(=O)NS(=O)(=O)C3CC3)cc12` [Example 5, 1-(1-(3-chloro-5-(trifluoromethoxy)benzyl)piperidin-4-yl)-N-(cyclopropylsulfonyl)-6-fluoro-3-methyl-1H-indazole-5-carboxamide], for which the IC50 at hNav1.7 stood at 6 nM; at NaV1.7, 51 nM; on NaV1.5, 2400 nM.

On to `Cc1nn(C2CCC(C)CC2)c2cc(F)c(C(=O)NS(=O)(=O)N3CCC3)cc12` (stereo not shown) [Example 29, N-(azetidin-1-ylsulfonyl)-6-fluoro-3-methyl-1-(4-methylcyclohexyl)-1H-indazole-5-carboxamide], for which the IC50 was determined as 350 nM on hNav1.7 and 1000 nM against NaV1.7.

Regarding `Cc1nn(C2CCN(c3ccc(Cl)c(C(F)(F)F)n3)CC2)c2cc(F)c(C(=O)NS(=O)(=O)C3CC3)cc12` [Example 13, 1-(1-(5-chloro-6-(trifluoromethyl)pyridin-2-yl)piperidin-4-yl)-N-(cyclopropylsulfonyl)-6-fluoro-3-methyl-1H-indazole-5-carboxamide 2,2,2-trifluoroacetate], the IC50 on hNav1.7 came out at 15 nM; against NaV1.7, 250 nM; on NaV1.5, 2400 nM.

Turning to `Cc1nn(-c2ccc3c(c2)CCCC3)c2cc(F)c(C(=O)NS(=O)(=O)N3CCC3)cc12` [Example 25, N-(azetidin-1-ylsulfonyl)-6-fluoro-3-methyl-1-(5,6,7,8-tetrahydronaphthalen-2-yl)-1H-indazole-5-carboxamide], the IC50 amounted to 260 nM on hNav1.7 and 44 nM against NaV1.7.

Consider `Cc1nn(C2CCC(C(C)C)CC2)c2cc(F)c(C(=O)NS(=O)(=O)N3CCC3)cc12` (stereo not shown) [Example 30, N-(azetidin-1-ylsulfonyl)-6-fluoro-1-(4-isopropylcyclohexyl)-3-methyl-1H-indazole-5-carboxamide], for which the IC50 at hNav1.7 amounted to 25 nM; at NaV1.7 it was 39 nM.

As to `Cc1nn(-c2ccc3c(c2)CCCC3)c2cc(F)c(C(=O)NS(C)(=O)=O)cc12` [Example 26, 6-fluoro-3-methyl-N-(methylsulfonyl)-1-(5,6,7,8-tetrahydronaphthalen-2-yl)-1H-indazole-5-carboxamide], the IC50 at hNav1.7 is 100 nM; on NaV1.7, 160 nM.

`Cc1nn(C2CCC(C(C)(C)C)CC2)c2cc(F)c(C(=O)NS(C)(=O)=O)cc12` (stereo not shown) [Example 28, 1-(4-(tert-butyl)cyclohexyl)-6-fluoro-3-methyl-N-(methylsulfonyl)-1H-indazole-5-carboxamide]: the figures for the IC50 on hNav1.7 and on NaV1.7 were 47 nM and 320 nM, respectively.

In the case of `Cc1nn(C2CCC(C)CC2)c2cc(F)c(C(=O)NS(C)(=O)=O)cc12` (stereo not shown) [Example 31, 6-fluoro-3-methyl-1-(4-methylcyclohexyl)-N-(methylsulfonyl)-1H-indazole-5-carboxamide], the IC50 on hNav1.7 turned out to be 340 nM; against NaV1.7, 2000 nM.

On NaV1.5 (human, pH 7.4), `Cc1nn(C2CCOCC2)c2cc(F)c(C(=O)NS(C)(=O)=O)cc12` [Example 34, 6-fluoro-3-methyl-N-(methylsulfonyl)-1-(tetrahydro-2H-pyran-4-yl)-1H-indazole-5-carboxamide] came in with an IC50 of at least 30000 nM.

With `Cc1nn(C2CCOCC2)c2cc(F)c(C(=O)NS(=O)(=O)N3CCC3)cc12` [Example 32, N-(azetidin-1-ylsulfonyl)-6-fluoro-3-methyl-1-(tetrahydro-2H-pyran-4-yl)-1H-indazole-5-carboxamide], on NaV1.5 (human, pH 7.4), the IC50 is at least 30000 nM.
